# ChEMBL document CHEMBL5338723, “Emerging Target-Directed Approaches for the Treatment and Diagnosis of Microbial Infections” (J Med Chem, 2023)
# Columns and labels:
# [1] = system: Escherichia coli; test: Antimicrobial activity against Escherichia coli UTI89 assessed as microbial growth inhibition; assay type: functional
# [2] = system: Salmonella typhimurium; test: Antimicrobial activity against Salmonella enterica subsp. enterica serovar Typhimurium assessed as increase in microbial growth inhibition; assay type: functional
# [3] = system: Salmonella enteritidis; test: Antimicrobial activity against Salmonella enterica subsp. enterica serovar Enteritidis assessed as increase in microbial growth inhibition; assay type: functional
# [4] = system: Escherichia coli; test: Antimicrobial activity against Escherichia coli ATCC 35218 assessed as microbial growth inhibition; assay type: functional
# [5] = system: Mycobacterium tuberculosis; test: Antimicrobial activity against Mycobacterium tuberculosis H37Rv assessed as microbial growth inhibition; assay type: functional
# [6] = system: Escherichia coli; test: Antimicrobial activity against Escherichia coli MG1655 expressing TEM-1 assessed as microbial growth inhibition in the presence of bathocuproinedisulfonic acid; assay type: functional
# [7] = system: Escherichia coli; test: Antibacterial activity against Escherichia coli UTI89 assessed as inhibition of bacterial growth; assay type: functional
# [8] = system: Escherichia coli; test: Antibacterial activity against Escherichia coli MG1655 expressing NDM-1 assessed as inhibition of bacterial growth; assay type: functional
# [9] = system: Escherichia coli; test: Antimicrobial activity against Escherichia coli MG1655 expressing CTX-M-1 assessed as microbial growth inhibition in the presence of bathocuproinedisulfonic acid; assay type: functional
# [10] = system: Escherichia coli; test: Antimicrobial activity against Escherichia coli MG1655 expressing NDM-1 assessed as microbial growth inhibition in the presence of bathocuproinedisulfonic acid; assay type: functional
# [11] = system: Escherichia coli; test: Antimicrobial activity against Escherichia coli UTI89 expressing CTX-M-1 assessed as microbial growth inhibition in the presence of bathocuproinedisulfonic acid; assay type: functional
# [12] = system: Escherichia coli; test: Antimicrobial activity against Escherichia coli UTI89 expressing NDM-1 assessed as microbial growth inhibition in the presence of bathocuproinedisulfonic acid; assay type: functional
# [13] = system: Escherichia coli; test: Antibacterial activity against Escherichia coli UTI89 expressing CMY-2 assessed as inhibition of bacterial growth; assay type: functional
# [14] = Cytotoxicity against human CCD 19Lu cells assessed as lethal dose by CellTox Green cytotoxicity assay; assay type: toxicity, cell-based; conditions: read-out: LD50 (the source's name)
# [15] = system: Escherichia coli; test: Antibacterial activity against Escherichia coli MG1655 expressing CMY-2 assessed as inhibition of bacterial growth; assay type: functional
# [16] = system: Escherichia coli; test: Antimicrobial activity against Escherichia coli UTI89 expressing TEM-1 assessed as microbial growth inhibition in the presence of bathocuproinedisulfonic acid; assay type: functional
# [17] = system: Escherichia coli; test: Antibacterial activity against Escherichia coli UTI89 expressing CTX-M-1 assessed as inhibition of bacterial growth; assay type: functional
# [18] = Cytotoxicity against human HepG2 cells assessed as lethal dose by CellTox Green cytotoxicity assay; assay type: toxicity, cell-based; conditions: read-out: LD50 (the source's name)
# [19] = system: Escherichia coli; test: Antimicrobial activity against Escherichia coli MG1655 expressing CMY-2 assessed as microbial growth inhibition in the presence of bathocuproinedisulfonic acid; assay type: functional
# [20] = system: Escherichia coli; test: Antibacterial activity against Escherichia coli MG1655 assessed as inhibition of bacterial growth; assay type: functional
# [21] = system: Escherichia coli; test: Antibacterial activity against Escherichia coli MG1655 expressing CTX-M-1 assessed as inhibition of bacterial growth; assay type: functional
# [22] = system: Escherichia coli; test: Antimicrobial activity against Escherichia coli UTI89 expressing CMY-2 assessed as microbial growth inhibition in the presence of bathocuproinedisulfonic acid; assay type: functional
# [23] = system: Escherichia coli; test: Antibacterial activity against Escherichia coli UTI89 expressing NDM-1 assessed as inhibition of bacterial growth; assay type: functional
# [24] = system: Salmonella typhimurium; test: Antimicrobial activity against Salmonella enterica subsp. enterica serovar Typhimurium 19585 assessed as microbial growth inhibition; assay type: functional
# [25] = system: Proteus mirabilis; test: Antimicrobial activity against Proteus mirabilis 29906 assessed as microbial growth inhibition; assay type: functional
# [26] = system: Salmonella typhi; test: Antimicrobial activity against Salmonella enterica subsp. enterica serovar Typhi 700931 assessed as microbial growth inhibition; assay type: functional
# [27] = system: Shigella flexneri; test: Antimicrobial activity against Shigella flexneri M90T assessed as microbial growth inhibition; assay type: functional
# [28] = system: Escherichia coli; test: Antimicrobial activity against Escherichia coli 25922 assessed as microbial growth inhibition; assay type: functional
# [29] = system: Escherichia coli; test: Antimicrobial activity against Escherichia coli BAA-196 assessed as microbial growth inhibition; assay type: functional
# [30] = system: Shigella flexneri; test: Antimicrobial activity against Shigella flexneri 2457T assessed as microbial growth inhibition; assay type: functional
# [31] = system: Salmonella typhimurium; test: Antimicrobial activity against Salmonella enterica subsp. enterica serovar Typhimurium 29630 assessed as microbial growth inhibition; assay type: functional
# [32] = system: Salmonella typhi; test: Antimicrobial activity against Salmonella enterica subsp. enterica serovar Typhi 19214 assessed as microbial growth inhibition; assay type: functional
# [33] = system: Escherichia coli; test: Antimicrobial activity against Escherichia coli DH5alpha assessed as microbial growth inhibition; assay type: functional
# [34] = system: Salmonella typhimurium; test: Antimicrobial activity against Salmonella enterica subsp. enterica serovar Typhimurium BAA-190 assessed as microbial growth inhibition; assay type: functional
# [35] = system: Staphylococcus aureus; test: Antibacterial activity against Staphylococcus aureus assessed as microbial growth inhibition; assay type: functional, organism-based
# [36] = system: Staphylococcus aureus; test: Potency index, ratio of ciprofloxacin MIC to test compound MIC for antimicrobial activity against Staphylococcus aureus; assay type: functional, organism-based
# [37] = system: Escherichia coli; test: Antibacterial activity against Escherichia coli assessed as microbial growth inhibition; assay type: functional
# [38] = system: Acinetobacter genomosp. 13TU; test: Antimicrobial activity against Acinetobacter nosocomialis assessed as microbial growth inhibition; assay type: functional
# [39] = system: Acinetobacter baumannii; test: Antimicrobial activity against Acinetobacter baumannii assessed as microbial growth inhibition; assay type: functional
compound,measurement,setting,value
C[C@@H](O)[C@H]1C(=O)N2C(C(=O)O)=C(S[C@H]3C[C@@H](C(=O)N(C)C)N(C(=O)CCCc4cn(CCOCCOCCOCCNC(=O)c5cc(O)c(O)c(C(=O)N[C@H]6COC(=O)[C@@H](NC(=O)c7cccc(O)c7O)COC(=O)[C@@H](NC(=O)c7cccc(O)c7O)COC6=O)c5)nn4)C3)[C@H](C)[C@H]12,MIC,[1],0.01 µM
same,MIC,[2],0.01 µM
same,MIC,[3],0.01 µM
same,MIC,[4],0.01 µM
Oc1nc2ccccc2nc1O,MIC,[5],> 59.2 µM
O=C(Cc1ccccc1)N[C@@H]1C(=O)N2C(C(=O)O)=C(CSc3ccccn3)CS[C@H]12,MIC,[6],> 140 µM
same,MIC,[7],35 µM
same,MIC,[8],17.5 µM
same,MIC,[9],> 140 µM
same,MIC,[10],> 140 µM
same,MIC,[11],> 140 µM
same,MIC,[12],> 140 µM
same,MIC,[13],17.5 µM
same,CC50,[14],> 500 µM
same,MIC,[15],17.5 µM
same,MIC,[16],> 140 µM
same,MIC,[17],17.5 µM
same,CC50,[18],> 500 µM
same,MIC,[19],> 140 µM
same,MIC,[20],35 µM
same,MIC,[21],17.5 µM
same,MIC,[22],> 140 µM
same,MIC,[23],17.5 µM
H-GGAPATSANAAGAAAIVGALAGIPGGPLGVVVGAVSAGLTTAIGSTVGSGSASSSAGGGS-OH,MIC,[24],1.1 µM
same,MIC,[25],1.1 µM
same,MIC,[26],1.1 µM
same,MIC,[27],1.1 µM
same,MIC,[28],1.1 µM
same,MIC,[29],1.1 µM
same,MIC,[30],1.1 µM
same,MIC,[31],1.1 µM
same,MIC,[32],1.1 µM
same,MIC,[33],1.1 µM
same,MIC,[34],1.1 µM
Galbofloxacin,MIC,[35],0.093 µM
same,Ratio,[36],10
CCCCCCCCCC(=O)N[C@@H](Cc1c[nH]c2ccccc12)C(=O)N[C@H](CC(N)=O)C(=O)N[C@@H](CC(=O)O)C(=O)N[C@@H]1C(=O)NCC(=O)N[C@@H](CCCNC(=O)[C@H](CCSC)NC(=O)[C@H](Cc2ccc(O)cc2)NC(=O)[C@H](CCCCN)NC(=O)[C@@H]2CCCN2C(=O)[C@H](CO)NC(=O)[C@H](Cc2c[nH]c3ccccc23)NC(=O)CN(CCCCNC(=O)c2cccc(O)c2O)C(=O)c2cccc(O)c2O)C(=O)N[C@@H](CC(=O)O)C(=O)N[C@H](C)C(=O)N[C@@H](CC(=O)O)C(=O)NCC(=O)N[C@H](CO)C(=O)N[C@@H](C(C)CC(=O)O)C(=O)N[C@@H](CC(=O)c2ccccc2N)C(=O)O[C@@H]1C (some centres undefined),MIC,[37],1 µM
same,MIC,[38],1 µM
same,MIC,[39],1 µM
